Measurements as given in publication PMC3189207, “DomPep—A General Method for Predicting Modular Domain-Mediated Protein-Protein Interactions” (PLoS ONE, 2011).
Residues, ends and D or L forms follow the SMILES beside them.

How the values were obtained:
[1] = biological target: T1, Scrib PDZ-1 domain (Homo sapiens, UniProt Q14160); assay: In-solution fluorescence polarization binding of peptides to Scrib PDZ1; details: Kd value of 100 µM applied as binding cutoff, NB without definition, read-out: Kd (µM) PDZ1
T1 construct: ROC curves of DomPep prediction for the three Scrib PDZ-1/2/3 domains

[2] = biological target: T2, Scrib PDZ-3 domain (Homo sapiens, UniProt Q14160); assay: In-solution fluorescence polarization binding of peptides to Scrib PDZ3; details: Kd value of 100 µM applied as binding cutoff, NB without definition
T2 construct: ROC curves of DomPep prediction for the three Scrib PDZ-1/2/3 domains
T2 sequence (Q14160 1004-1093 limits assumed): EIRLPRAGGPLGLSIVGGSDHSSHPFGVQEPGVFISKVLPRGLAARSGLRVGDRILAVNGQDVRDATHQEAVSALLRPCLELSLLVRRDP
From the text: Because DomPep compared favorably to MDSM in identifying ligands for a PDZ domain included in the training set and to SPSSM in identifying binding peptides for an untrained PDZ domain, we next tested it whether it could reliably PPIs mediated by a PDZ domain on the genome scale. To this end, we employed three DomPep models to predict interactions between the Scrib PDZ domains and human proteins from the Swiss-Prot protein database. The three prediction models, which were generated for the mouse Scrib PDZ-1, PDZ-2 and PDZ-3 domains, were trained with 6, 5 and 30 positive peptide, respectively (Table S1). Searching the protein database with these models yielded a list of potential PDZ ligands. […] This experiment identified 14, 14, and 38 positives for the PDZ-1, -2, and -3 domains, respectively (Table 1). […] Importantly, we identified four peptides that were not included in the training set as physiological binders to the Scrib PDZ domains. The corresponding proteins, namely APC, LPP, VANGL2 and ZO2, were previously reported to interact with Scrib in vivo via its PDZ domains, [36], [37], [38], [39].
Figure 4 Application of DomPep to the prediction of PDZ-binding ligands. ROC curves of DomPep prediction for the three Scrib PDZ-1/2/3 domains using 56 peptides selected from the human protein database as the test set. The respective affinities of the three domains for the 56 peptides were measured by fluorescence polarization (Table 1).

[3] = biological target: T3, Scrib PDZ-2 domain (Homo sapiens, UniProt Q14160); assay: In-solution fluorescence polarization binding of peptides to Scrib PDZ2; details: Kd value of 100 µM applied as binding cutoff, NB without definition, read-out: Kd (µM) PDZ2
T3 construct: ROC curves of DomPep prediction for the three Scrib PDZ-1/2/3 domains
T3 sequence (Q14160 862-950 limits assumed): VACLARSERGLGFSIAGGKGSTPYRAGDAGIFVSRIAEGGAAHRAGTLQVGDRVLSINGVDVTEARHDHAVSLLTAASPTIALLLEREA

T1 sequence (Q14160 728-815 limits assumed): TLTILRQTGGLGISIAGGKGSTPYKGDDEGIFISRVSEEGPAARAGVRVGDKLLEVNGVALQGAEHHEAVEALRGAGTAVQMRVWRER

CC(C)[C@H](NC(=O)[C@H](CO)NC(=O)[C@@H](NC(=O)[C@@H](NC(=O)CNC(=O)[C@H](CCC(=O)O)NC(=O)[C@H](C)NC(=O)[C@H](CCCNC(=N)N)NC(=O)[C@H](CCC(=O)O)NC(=O)[C@@H](N)CS)[C@@H](C)O)C(C)C)C(=O)O [MUSK] (H-CERAEGTVSV-OH) was tested, and the Kd [1] was > 100 µM, the Kd [2] was 143 µM and the Kd [3] was > 100 µM.
For CC[C@H](C)[C@H](NC(=O)[C@@H]1CCCN1C(=O)[C@@H](NC(=O)CNC(=O)[C@@H](NC(=O)[C@@H](NC(=O)[C@H](CC(N)=O)NC(=O)[C@@H](NC(=O)[C@H](CCC(N)=O)NC(=O)[C@@H](N)CC(=O)O)C(C)C)[C@@H](C)O)C(C)C)[C@@H](C)CC)C(=O)O [EPHA2] (H-DQVNTVGIPI-OH; N-terminus and C-terminus assumed), the Kd [1] was > 100 µM, the Kd [2] was > 100 µM and the Kd [3] was > 100 µM.
In the case of CC(C)[C@H](NC(=O)[C@H](CO)NC(=O)[C@H](CCCCN)NC(=O)[C@H](CCCCN)NC(=O)[C@H](CO)NC(=O)[C@H](CCCCN)NC(=O)[C@H](CCCCN)NC(=O)[C@H](CCCCN)NC(=O)[C@H](CCC(=O)O)NC(=O)[C@H](C)N)C(=O)O [PSMA8] (H-AEKKKSKKSV-OH), the Kd [1] is reported as > 100 µM, the Kd [2] is reported as 177 µM and the Kd [3] is reported as > 100 µM.
In the case of CC(C)C[C@H](NC(=O)[C@H](CS)NC(=O)[C@H](CC(=O)O)NC(=O)[C@@H](NC(=O)[C@H](CC(N)=O)NC(=O)[C@H](CCCNC(=N)N)NC(=O)[C@H](CC(C)C)NC(=O)CNC(=O)CNC(=O)[C@@H](N)CC(=O)O)C(C)C)C(=O)O [TBK1] (H-DGGLRNVDCL-OH), the Kd [1] is reported as 77 µM, the Kd [2] is reported as 67.8 µM and the Kd [3] is reported as > 100 µM.
For CC[C@H](C)[C@H](NC(=O)CNC(=O)[C@@H](NC(=O)CNC(=O)[C@H](Cc1c[nH]cn1)NC(=O)[C@H](CC(C)C)NC(=O)[C@H](Cc1c[nH]cn1)NC(=O)[C@@H](N)CC(C)C)[C@@H](C)O)C(=O)N[C@@H](CCC(N)=O)C(=O)N[C@H](C(=O)O)C(C)C [EPHA7] (H-LHLHGTGIQV-OH; N-terminus and C-terminus assumed), the Kd [1] was > 100 µM, the Kd [2] was > 100 µM and the Kd [3] was > 100 µM.
CC[C@H](C)[C@H](NC(=O)[C@@H](NC(=O)[C@H](Cc1ccccc1)NC(=O)[C@H](CCC(=O)O)NC(=O)[C@@H]1CCCN1C(=O)[C@H](CC(N)=O)NC(=O)[C@@H](NC(=O)[C@@H](N)Cc1ccc(O)cc1)[C@@H](C)O)C(C)C)C(=O)N[C@@H](CC(N)=O)C(=O)N[C@H](C(=O)O)C(C)C [PRKCB1] (H-YTNPEFVINV-OH; N-terminus and C-terminus assumed) was tested, and the Kd [1] was > 100 µM, the Kd [2] was > 100 µM and the Kd [3] was > 100 µM.
CSCC[C@H](NC(=O)[C@H](CC(C)C)NC(=O)[C@@H](NC(=O)[C@H](CS)NC(=O)[C@H](CCCCN)NC(=O)CNC(=O)[C@H](CCCCN)NC(=O)[C@@H](NC(=O)[C@H](CCCNC(=N)N)NC(=O)[C@@H](N)CC(=O)O)C(C)C)[C@@H](C)O)C(=O)O [DIRAS1] (H-DRVKGKCTLM-OH; N-terminus and C-terminus assumed) was tested, and the Kd [1] was > 100 µM, the Kd [2] was > 100 µM and the Kd [3] was > 100 µM.
For CC(C)C[C@H](NC(=O)[C@H](CC(C)C)NC(=O)[C@@H](NC(=O)CNC(=O)[C@H](Cc1ccc(O)cc1)NC(=O)[C@H](CC(C)C)NC(=O)[C@H](CCC(N)=O)NC(=O)[C@H](C)NC(=O)[C@@H](N)CCCCN)[C@@H](C)O)C(=O)N[C@@H](CC(N)=O)C(=O)O [BEGAIN] (H-KAQLYGTLLN-OH; N-terminus and C-terminus assumed), the Kd [1] was > 100 µM, the Kd [2] was > 100 µM and the Kd [3] was > 100 µM.
In the case of CC(C)C[C@H](NC(=O)[C@@H](NC(=O)[C@H](CCCCN)NC(=O)[C@H](CC(C)C)NC(=O)[C@H](Cc1ccccc1)NC(=O)[C@H](CCCCN)NC(=O)[C@H](CCC(=O)O)NC(=O)[C@H](Cc1ccccc1)NC(=O)[C@H](CC(=O)O)NC(=O)[C@@H](N)CCC(N)=O)[C@@H](C)O)C(=O)O [MTERFD1] (H-QDFEKFLKTL-OH; N-terminus and C-terminus assumed), the Kd [1] is reported as > 100 µM, the Kd [2] is reported as > 100 µM and the Kd [3] is reported as > 100 µM.
CC[C@H](C)[C@H](NC(=O)[C@H](C)NC(=O)[C@H](CO)NC(=O)[C@H](CC(C)C)NC(=O)[C@H](CC(C)C)NC(=O)[C@@H](N)CCC(=O)O)C(=O)N[C@@H](CCC(=O)O)C(=O)N[C@@H](CCCCN)C(=O)N[C@@H](CC(C)C)C(=O)N[C@@H](CC(C)C)C(=O)O [UBXD1] (H-ELLSAIEKLL-OH; N-terminus and C-terminus assumed) was tested, and the Kd [1] was > 100 µM, the Kd [2] was > 100 µM and the Kd [3] was > 100 µM.
In the case of CC(C)C[C@H](NC(=O)[C@@H](N)C(C)C)C(=O)N[C@@H](CCC(N)=O)C(=O)N[C@@H](CCCNC(=N)N)C(=O)N[C@@H](Cc1c[nH]cn1)C(=O)N[C@H](C(=O)N[C@H](C(=O)NCC(=O)N[C@@H](CCCCN)C(=O)N[C@@H](C)C(=O)O)[C@@H](C)O)[C@@H](C)O [ACBD6] (H-VLQRHTTGKA-OH; N-terminus and C-terminus assumed), the Kd [1] is reported as > 100 µM, the Kd [2] is reported as > 100 µM and the Kd [3] is reported as > 100 µM.
In the case of CC(C)C[C@H](NC(=O)[C@H](C)NC(=O)[C@@H](NC(=O)[C@H](CO)NC(=O)[C@@H](N)CO)[C@@H](C)O)C(=O)N[C@@H](Cc1c[nH]cn1)C(=O)N[C@@H](CCC(N)=O)C(=O)N[C@@H](Cc1c[nH]cn1)C(=O)N[C@@H](Cc1c[nH]cn1)C(=O)N[C@@H](Cc1ccccc1)C(=O)O [LIMD1] (H-SSTALHQHHF-OH; N-terminus and C-terminus assumed), the Kd [1] is reported as > 100 µM, the Kd [2] is reported as > 100 µM and the Kd [3] is reported as > 100 µM.
In the case of CC(C)C[C@H](NC(=O)[C@H](CCC(=O)O)NC(=O)[C@H](CCC(=O)O)NC(=O)[C@H](CCCNC(=N)N)NC(=O)[C@@H](NC(=O)[C@H](C)NC(=O)[C@H](CO)NC(=O)[C@@H](NC(=O)[C@H](CCCCN)NC(=O)[C@@H](N)CCC(=O)O)C(C)C)[C@@H](C)O)C(=O)O (H-EKVSATREEL-OH), the Kd [1] is reported as > 100 µM, the Kd [2] is reported as 88.1 µM and the Kd [3] is reported as > 100 µM.
With CC[C@H](C)[C@H](NC(=O)[C@@H](N)CC(N)=O)C(=O)NCC(=O)N[C@@H](CO)C(=O)N[C@@H](CCC(N)=O)C(=O)NCC(=O)N[C@@H](CO)C(=O)N[C@H](C(=O)N[C@@H](CC(=O)O)C(=O)N[C@@H](Cc1ccc(O)cc1)C(=O)O)[C@@H](C)O [TRIM21] (H-NIGSQGSTDY-OH) the Kd [1] was > 100 µM, the Kd [2] was 116 µM and the Kd [3] was > 100 µM.
